From article PMC5707495, “Systematic re-evaluation of the bis(2-hydroxyethyl)disulfide (HEDS) assay reveals an alternative mechanism and activity of glutaredoxins” (Chemical Science, 2015)

Columns and labels:
ScGrx7 = molecular target: T1, ScGrx7 (Saccharomyces cerevisiae, UniProt P38068); experiment: HEDS assay coupled to glutathione reductase, NADPH […] nm; Km replot and Dixon plot; assay type: biochemical
T1 construct: gene GRX7; recombinant, N-terminal MRGS(H)6 tag kept, altered stop codon; E. coli XL1-Blue; non-covalent dimer; monothiol, one Cys per subunit
T1 sequence (P38068 37-203 limits assumed): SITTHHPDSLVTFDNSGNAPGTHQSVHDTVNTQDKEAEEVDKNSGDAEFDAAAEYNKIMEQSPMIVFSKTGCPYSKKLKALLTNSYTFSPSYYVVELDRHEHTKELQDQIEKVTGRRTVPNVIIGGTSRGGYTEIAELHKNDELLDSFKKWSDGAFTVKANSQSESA

PfGrx = molecular target: T2, PfGrx (Plasmodium falciparum, UniProt Q9NLB2); experiment: HEDS assay coupled to glutathione reductase, NADPH […] nm; assay type: biochemical; details: co-substrate GSH; sequential kinetics; pH 8.0, 25 °C
T2 construct: gene PF3D7_0306300; dithiol Grx with Cys29 and Cys32 (CPYC motif) and Cys88 (GGC motif)
T2 sequence (Q9NLB2 1-111): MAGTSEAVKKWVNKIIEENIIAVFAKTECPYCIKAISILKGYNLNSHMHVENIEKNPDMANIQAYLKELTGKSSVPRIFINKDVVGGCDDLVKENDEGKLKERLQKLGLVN

Question: With `OCCS` [2-ME] as the molecule, how does the Ki (ScGrx7) read?
Answer: 180 µM

Question: With `OCCSSCCO` [HEDS, bis(2-hydroxyethyl)disulfide] as the molecule, how does the “HEDS assay coupled to glutathione reductase, NADPH 340 nm” value (PfGrx) read?
Answer: HEDS assays with PfGrx yielded sequential kinetic patterns
